For 37 compounds, EC50 results are on record in patent publication US8629157B2, “Pyrrolidine compounds which modulate the CB2 receptor” (Boehringer Ingelheim International GmbH, priority 2009, dated 2014).

Structures are written as SMILES.

The first assay deals with human CB2R (Homo sapiens, UniProt P34972). Briefly: CB2R mediated modulation of cAMP synthesis. The assay is classed as cell-based.
Chain of human CB2R (P34972 whole entry): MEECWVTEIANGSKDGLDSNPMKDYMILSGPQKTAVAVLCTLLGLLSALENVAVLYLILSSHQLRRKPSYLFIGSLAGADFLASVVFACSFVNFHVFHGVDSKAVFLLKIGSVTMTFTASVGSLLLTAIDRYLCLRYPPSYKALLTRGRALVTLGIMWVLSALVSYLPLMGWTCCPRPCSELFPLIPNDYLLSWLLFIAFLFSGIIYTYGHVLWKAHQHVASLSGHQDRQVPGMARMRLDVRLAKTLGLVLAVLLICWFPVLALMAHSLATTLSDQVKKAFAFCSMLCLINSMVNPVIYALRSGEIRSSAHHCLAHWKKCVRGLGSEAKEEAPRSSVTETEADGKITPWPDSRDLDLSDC
Details: not given
In a few lines: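 cAMP measured with the DiscoverX-XS kit after 30 min, 37° C. compound exposure of human CB2R-expressing CHO cells stimulated by 10 uM forskolin (1 mM IBMX, 0.25% BSA).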
Turning to `CC(C)(C)c1cc(NC(=O)[C@@H]2CCC(=O)N2c2ccc(CF)cc2)on1` [(S)-1-(4-Fluoromethyl-phenyl)-5-oxo-pyrrolidine-2-carboxylic acid (3-tert-butyl-isoxazol-5-yl)-amide], the midpoint of the response, the EC50, lay at 55.8 nM.
Same read-out and setting: with `CC(C)c1ccc(N2C(=O)CC[C@H]2C(=O)Nc2cc(C(C)(C)C)no2)cc1` [(S)-1-(4-Isopropyl-phenyl)-5-oxo-pyrrolidine-2-carboxylic acid (3-tert-butyl-isoxazol-5-yl)-amide] the figure was 159 nM.
On to `CC(C)(C)c1cc(NC(=O)[C@@H]2CCCN2S(=O)(=O)c2ccc(S(C)(=O)=O)cc2)no1` [(S)-1-(4-Methanesulfonyl-benzenesulfonyl)-pyrrolidine-2-carboxylic acid (5-tert-butyl-isoxazol-3-yl)-amide], for which a half-maximal response (EC50) required 183 nM.
As to `COc1ccc(N2C(=O)CC[C@H]2C(=O)Nc2cc(C(C)(C)C)no2)cc1` [(S)-1-(4-Methoxy-phenyl)-5-oxo-pyrrolidine-2-carboxylic acid (3-tert-butyl-isoxazol-5-yl)-amide], it took 163 nM to reach a half-maximal effect (EC50).
Same read-out and setting: with `CC(C)(C)c1cc(NC(=O)[C@@H]2CCCN2S(=O)(=O)c2ccc(C(F)(F)F)cc2)no1` [(S)-1-(4-Trifluoromethyl-benzenesulfonyl)-pyrrolidine-2-carboxylic acid (5-tert-butyl-isoxazol-3-yl)-amide] the figure was 222 nM; with `O=C(Nc1ccc(C(F)(F)F)cn1)[C@@H]1CCCN1c1ccc(C(F)(F)F)cc1` [(S)-1-(4-Trifluoromethyl-phenyl)-pyrrolidine-2-carboxylic acid (5-trifluoromethyl-pyridin-2-yl)-amide], 15.5 nM.
Still for that read-out and setting: then `CC(C)(C)c1cc(NC(=O)[C@@H]2CCC(=O)N2c2ccc(C#N)cc2)no1` [(S)-1-(4-cyano-phenyl)-5-oxo-pyrrolidine-2-carboxylic acid (5-tert-butyl-isoxazol-3-yl)-amide], with 59.9 nM; and `CC(C)(C)c1cc(NC(=O)[C@@H]2CCC(=O)N2c2ccc(F)cc2)no1` [(S)-1-(4-fluoro-phenyl)-5-oxo-pyrrolidine-2-carboxylic acid (5-tert-butyl-isoxazol-3-yl)-amide], with 35.7 nM; and `CC(C)(C)c1cc(NC(=O)[C@@H]2CCC(=O)N2c2ccc([N+](=O)[O-])cc2)no1` [(S)-1-(4-nitro-phenyl)-5-oxo-pyrrolidine-2-carboxylic acid (5-tert-butyl-isoxazol-3-yl)-amide], with 21.1 nM.
On the same count and under the same terms, with `CC(C)(C)c1cc(NC(=O)[C@@H]2CCCN2c2ncc(Cl)cc2F)on1` [(S)-1-(5-Chloro-3-fluoro-pyridin-2-yl)-pyrrolidine-2-carboxylic acid (3-tert-butyl-isoxazol-5-yl)-amide] the figure was 0.02 nM; with `CC(C)(C)c1cc(NC(=O)[C@@H]2CCC(=O)N2c2ccc(Cl)cn2)on1` [(S)-1-(5-Chloro-pyridin-2-yl)-5-oxo-pyrrolidine-2-carboxylic acid (3-tert-butyl-isoxazol-5-yl)-amide], 3.44 nM; with `CC(C)(C)c1cc(NC(=O)[C@@H]2CCC(=O)N2c2ncc(Cl)cn2)on1` [(S)-1-(5-Chloro-pyrimidin-2-yl)-5-oxo-pyrrolidine-2-carboxylic acid (3-tert-butyl-isoxazol-5-yl)-amide], 455 nM.
As to `CC(C)(C)c1cc(NC(=O)[C@@H]2CCC(=O)N2c2ccc(Cl)s2)on1` [(S)-1-(5-Chloro-thiophen-2-yl)-5-oxo-pyrrolidine-2-carboxylic acid (3-tert-butyl-isoxazol-5-yl)-amide], a half-maximal response (EC50) required 67.5 nM.
On to `Cc1nc(N2C(=O)CC[C@H]2C(=O)Nc2cc(C(C)(C)C)no2)ccc1F` [(S)-1-(5-Fluoro-6-methyl-pyridin-2-yl)-5-oxo-pyrrolidine-2-carboxylic acid (3-tert-butyl-isoxazol-5-yl)-amide], for which a half-maximal effect (EC50) was put at 74.4 nM.
On the same count and under the same terms, with `CC(C)(C)c1cc(NC(=O)[C@@H]2CCC(=O)N2c2ccc(F)cn2)on1` [(S)-1-(5-Fluoro-pyridin-2-yl)-5-oxo-pyrrolidine-2-carboxylic acid (3-tert-butyl-isoxazol-5-yl)-amide] the figure was 8.15 nM.
Same read-out and setting: then `COc1ccc(N2C(=O)CC[C@H]2C(=O)Nc2cc(C(C)(C)C)no2)nc1` [(S)-1-(5-Methoxy-pyridin-2-yl)-5-oxo-pyrrolidine-2-carboxylic acid (3-tert-butyl-isoxazol-5-yl)-amide], with 22.1 nM; and `Cc1ccc(N2C(=O)CC[C@H]2C(=O)Nc2cc(C(C)(C)C)no2)nc1` [(S)-1-(5-Methyl-pyridin-2-yl)-5-oxo-pyrrolidine-2-carboxylic acid (3-tert-butyl-isoxazol-5-yl)-amide], with 15.4 nM.
The same measure, in the same setting: with `CC(C)(C)c1cc(NC(=O)[C@@H]2CCCN2c2ccc(C(F)(F)F)cn2)on1` [(S)-1-(5-Trifluoromethyl-pyridin-2-yl)-pyrrolidine-2-carboxylic acid (3-tert-butyl-isoxazol-5-yl)-amide] the figure was 0.023 nM; with `CC(C)(C)c1csc(NC(=O)[C@@H]2CCCN2c2ccc(C(F)(F)F)cn2)n1` [(S)-1-(5-Trifluoromethyl-pyridin-2-yl)-pyrrolidine-2-carboxylic acid (4-tert-butyl-thiazol-2-yl)-amide], 8.56 nM; with `CC(C)(C)c1cc(NC(=O)[C@@H]2CCC(=O)N2c2ccc(C(F)(F)F)c(F)n2)on1` [(S)-1-(6-Fluoro-5-trifluoromethyl-pyridin-2-yl)-5-oxo-pyrrolidine-2-carboxylic acid (3-tert-butyl-isoxazol-5-yl)-amide], 8.05 nM.
For `CCCS(=O)(=O)N1CCC[C@H]1C(=O)Nc1cc(C(C)(C)C)on1` [(S)-1-(Propane-1-sulfonyl)-pyrrolidine-2-carboxylic acid (5-tert-butyl-isoxazol-3-yl)-amide], the midpoint of the response, the EC50, lay at 120 nM.
Consider `CC(C)(C)c1cc(NC(=O)[C@@H]2CCCN2CC2CCOC2)on1` (stereo partly drawn) [(S)-1-(Tetrahydro-furan-3-ylmethyl)-pyrrolidine-2-carboxylic acid (3-tert-butyl-isoxazol-5-yl)-amide], for which the EC50 (usually the concentration giving half of the maximal effect) came out at 0.116 nM.
Consider `CC(C)(C)c1cc(NC(=O)[C@@H]2CCCN2CC2CCCOC2)on1` (stereo partly drawn) [(S)-1-(Tetrahydro-pyran-3-ylmethyl)-pyrrolidine-2-carboxylic acid (3-tert-butyl-isoxazol-5-yl)-amide], for which the EC50 is 0.376 nM.
`CC(C)(C)c1csc(NC(=O)[C@@H]2CCCN2C2CCOCC2)n1` [(S)-1-(Tetrahydro-pyran-4-yl)-pyrrolidine-2-carboxylic acid (4-tert-butyl-thiazol-2-yl)-amide] gave a concentration giving a half-maximal response (EC50) of 279 nM.
`O=C(Nc1nc2cc(Cl)c(Cl)cc2[nH]1)[C@@H]1CCCN1C1CCOCC1` [(S)-1-(Tetrahydro-pyran-4-yl)-pyrrolidine-2-carboxylic acid (5,6-dichloro-1H-benzimidazol-2-yl)-amide] showed an EC50 of 165 nM.
Same read-out and setting: with `CC(C)(C)Cc1cc(NC(=O)[C@@H]2CCCN2C2CCOCC2)on1` [(S)-1-(Tetrahydro-pyran-4-yl)-pyrrolidine-2-carboxylic acid [3-(2,2-dimethyl-propyl)-isoxazol-5-yl]-amide] the figure was 14.9 nM.
Same read-out and setting: then `O=C(Nc1nc(-c2ccccc2)ns1)[C@@H]1CCCN1CC1CCOCC1` [(S)-1-(Tetrahydro-pyran-4-ylmethyl)-pyrrolidine-2-carboxylic acid (3-phenyl-1,2,4-thiadiazol-5-yl)-amide], with 40 nM.
As to `CC(C)(C)c1cc(NC(=O)[C@@H]2CCCN2CC2CCOCC2)on1` [(S)-1-(Tetrahydro-pyran-4-ylmethyl)-pyrrolidine-2-carboxylic acid (3-tert-butyl-isoxazol-5-yl)-amide], the 50% effective concentration (EC50) is 0.438 nM.
The compound `CC(C)(C)c1csc(NC(=O)[C@@H]2CCCN2CC2CCOCC2)n1` [(S)-1-(Tetrahydro-pyran-4-ylmethyl)-pyrrolidine-2-carboxylic acid (4-tert-butyl-thiazol-2-yl)-amide] came in with an EC50 of 17.6 nM.
On the same count and under the same terms, then `O=C(Nc1nc2cc(Cl)c(Cl)cc2[nH]1)[C@@H]1CCCN1CC1CCOCC1` [(S)-1-(Tetrahydro-pyran-4-ylmethyl)-pyrrolidine-2-carboxylic acid (5,6-dichloro-1H-benzimidazol-2-yl)-amide], with 56.2 nM.
Still for that read-out and setting: with `O=C(Nc1nc2cc(Cl)ccc2[nH]1)[C@@H]1CCCN1CC1CCOCC1` [(S)-1-(Tetrahydro-pyran-4-ylmethyl)-pyrrolidine-2-carboxylic acid (5-chloro-1H-benzimidazol-2-yl)-amide] the figure was 48.6 nM; with `CCc1sc(NC(=O)[C@@H]2CCCN2CC2CCOCC2)nc1-c1ccccc1` [(S)-1-(Tetrahydro-pyran-4-ylmethyl)-pyrrolidine-2-carboxylic acid (5-ethyl-4-phenyl-thiazol-2-yl)-amide], 10.9 nM; with `CC(C)(C)c1nnc(NC(=O)[C@@H]2CCCN2CC2CCOCC2)s1` [(S)-1-(Tetrahydro-pyran-4-ylmethyl)-pyrrolidine-2-carboxylic acid (5-tert-butyl-1,3,4-thiadiazol-2-yl)-amide], 16.5 nM.
For the compound `O=C(Nc1ccc(C(F)(F)F)cn1)[C@@H]1CCCN1CC1CCOCC1` [(S)-1-(Tetrahydro-pyran-4-ylmethyl)-pyrrolidine-2-carboxylic acid (5-trifluoromethyl-pyridin-2-yl)-amide], a half-maximal effect (EC50) was put at 212 nM.
For `O=C(Nc1nc2ccc(Cl)cc2s1)[C@@H]1CCCN1CC1CCOCC1` [(S)-1-(Tetrahydro-pyran-4-ylmethyl)-pyrrolidine-2-carboxylic acid (6-chloro-benzothiazol-2-yl)-amide], it took 188 nM to reach a half-maximal effect (EC50).

The same assay, now with this note: CHO cells expressing human CB2R; inhibition of forskolin-stimulated cAMP synthesis; mean; read-out: CB2 CAMP @ EC50 nM (mean).
Turning to `O=C(Nc1nc2cc(F)ccc2[nH]1)[C@@H]1CCCN1C1CCOCC1` [(S)-1-(Tetrahydro-pyran-4-yl)-pyrrolidine-2-carboxylic acid (5-fluoro-1H-benzimidazol-2-yl)-amide], the concentration for a half-maximal effect (EC50) amounted to 391 nM.
On the same count and under the same terms, then `O=C(Nc1nc2cc(Cl)ccc2s1)[C@@H]1CCCN1CC1CCOCC1` [(S)-1-(Tetrahydro-pyran-4-ylmethyl)-pyrrolidine-2-carboxylic acid (5-chloro-benzothiazol-2-yl)-amide], with 3.14 nM.
